Reference: ChEMBL document CHEMBL1201862, “PubChem BioAssay data set” (2004)
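All cell lines were grown in 96-well plates and treated with compound for 48 hours. GI50 marks 50% less growth.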 The source made the active and inactive calls. No stated cut-off is given here; in the data, active = GI50 up to about 1.1 µM and inactive = higher.

Key:
Test in all cases: growth of human tumour cells (NCI), 48 h
OVCAR-4 = test system: OVCAR-4
OVCAR-5 = test system: OVCAR-5
ACHN = test system: ACHN
MOLT-4 = test system: MOLT-4
SF-539 = test system: SF-539
HCC 2998 = test system: HCC 2998
SNB-19 = test system: SNB-19
NCI-H226 = test system: NCI-H226
HT-29 = test system: HT-29
RXF 393 = test system: RXF 393
HL-60 = test system: HL-60
SR = test system: SR
M14 = test system: M14
SK-MEL-2 = test system: SK-MEL-2
LOX IMVI = test system: LOX IMVI
A549 = test system: A549
OVCAR-8 = test system: OVCAR-8
SK-MEL-5 = test system: SK-MEL-5
DU-145 = test system: DU-145

Structure (SMILES) | GI50 (OVCAR-4) | GI50 (OVCAR-5) | GI50 (ACHN) | GI50 (MOLT-4) | GI50 (SF-539) | GI50 (HCC 2998) | GI50 (SNB-19) | GI50 (NCI-H226) | GI50 (HT-29) | GI50 (RXF 393) | GI50 (HL-60) | GI50 (SR) | GI50 (M14) | GI50 (SK-MEL-2) | GI50 (LOX IMVI) | GI50 (A549) | GI50 (OVCAR-8) | GI50 (SK-MEL-5) | GI50 (DU-145)
CCCn1c(SCC)c2ccccc2c1-c1nc(F)nc(F)n1 | > 100 µM (inactive) | > 100 µM (inactive) | > 100 µM (inactive) | > 100 µM (inactive) | > 100 µM (inactive) | > 100 µM (inactive) | > 100 µM (inactive) | > 100 µM (inactive) | > 100 µM (inactive) | > 100 µM (inactive) | > 100 µM (inactive) | > 100 µM (inactive) | > 100 µM (inactive) | > 100 µM (inactive) | > 100 µM (inactive) | > 100 µM (inactive) | – | – | –
CC(C)c1cccc(=O)c(O)c1 | 2.56 µM (inactive) | 9.73 µM (inactive) | 1.87 µM (inactive) | 1.02 µM (active) | 3.21 µM (inactive) | 9.44 µM (inactive) | 7.24 µM (inactive) | 6.32 µM (inactive) | 3.07 µM (inactive) | 0.299 µM (active) | 2.02 µM (inactive) | 0.959 µM (active) | 2.03 µM (inactive) | 5.68 µM (inactive) | 2.42 µM (inactive) | 2.83 µM (inactive) | 1.72 µM (inactive) | 2.1 µM (inactive) | –
O=S(=O)(O)c1ccccc1/N=N\c1ccc(/N=N/c2c(O)ccc3ccccc23)c(S(=O)(=O)O)c1 | > 100 µM (inactive) | > 100 µM (inactive) | > 100 µM (inactive) | > 100 µM (inactive) | – | – | > 100 µM (inactive) | > 100 µM (inactive) | > 100 µM (inactive) | > 100 µM (inactive) | – | – | > 100 µM (inactive) | > 100 µM (inactive) | – | > 100 µM (inactive) | > 100 µM (inactive) | > 100 µM (inactive) | > 100 µM (inactive)
NNC(=O)/C(=C/c1cccc([N+](=O)[O-])c1)NC(=O)c1ccccc1 | > 100 µM (inactive) | 77.3 µM (inactive) | > 100 µM (inactive) | > 100 µM (inactive) | > 100 µM (inactive) | > 100 µM (inactive) | > 100 µM (inactive) | > 100 µM (inactive) | > 100 µM (inactive) | > 100 µM (inactive) | > 100 µM (inactive) | > 100 µM (inactive) | > 100 µM (inactive) | > 100 µM (inactive) | > 100 µM (inactive) | > 100 µM (inactive) | > 100 µM (inactive) | > 100 µM (inactive) | –
NNC(=S)N/N=C/C(Cl)=C(\Cl)C(=O)O | > 100 µM (inactive) | > 100 µM (inactive) | > 100 µM (inactive) | > 100 µM (inactive) | > 100 µM (inactive) | > 100 µM (inactive) | > 100 µM (inactive) | > 100 µM (inactive) | > 100 µM (inactive) | > 100 µM (inactive) | > 100 µM (inactive) | > 100 µM (inactive) | > 100 µM (inactive) | > 100 µM (inactive) | > 100 µM (inactive) | > 100 µM (inactive) | > 100 µM (inactive) | > 100 µM (inactive) | –
COC1C=CC(C(=O)[N+]2=Cc3[nH]c4ccccc4c3CC2)O1 (stereo not drawn) | > 100 µM (inactive) | > 100 µM (inactive) | 97.9 µM (inactive) | 34.9 µM (inactive) | > 100 µM (inactive) | 55.6 µM (inactive) | > 100 µM (inactive) | 80.9 µM (inactive) | > 100 µM (inactive) | 61.5 µM (inactive) | 32.3 µM (inactive) | 30.5 µM (inactive) | > 100 µM (inactive) | > 100 µM (inactive) | > 100 µM (inactive) | > 100 µM (inactive) | > 100 µM (inactive) | > 100 µM (inactive) | –
COc1ccc(N2C(=O)C3c4[nH]c5ccc(C)cc5c4C4CCC(C)CC4C3C2=O)cc1 (stereo not drawn) | – | > 100 µM (inactive) | 99.3 µM (inactive) | 67.5 µM (inactive) | 17.7 µM (inactive) | – | 61.2 µM (inactive) | > 100 µM (inactive) | > 100 µM (inactive) | 20.7 µM (inactive) | > 10 µM (inactive) | 23.2 µM (inactive) | > 100 µM (inactive) | 33.3 µM (inactive) | > 100 µM (inactive) | > 100 µM (inactive) | > 100 µM (inactive) | > 100 µM (inactive) | > 100 µM (inactive)
N/C(=N\O)N/N=C/c1cccc(F)c1 | 85.9 µM (inactive) | 33.7 µM (inactive) | 27.7 µM (inactive) | 43.5 µM (inactive) | 28.9 µM (inactive) | 84.9 µM (inactive) | > 100 µM (inactive) | 21 µM (inactive) | 30.4 µM (inactive) | 24.8 µM (inactive) | 25.5 µM (inactive) | 21.9 µM (inactive) | 21.2 µM (inactive) | 67.8 µM (inactive) | 26.8 µM (inactive) | 31.7 µM (inactive) | 33 µM (inactive) | 14.8 µM (inactive) | –
COC1OC(CBr)C(OC(=O)c2ccccc2)C(OS(=O)(=O)c2ccc(C)cc2)C1Br (stereo not drawn) | > 100 µM (inactive) | – | > 100 µM (inactive) | > 100 µM (inactive) | > 100 µM (inactive) | > 100 µM (inactive) | > 100 µM (inactive) | – | > 100 µM (inactive) | > 100 µM (inactive) | > 100 µM (inactive) | > 100 µM (inactive) | > 100 µM (inactive) | > 100 µM (inactive) | > 100 µM (inactive) | > 100 µM (inactive) | > 100 µM (inactive) | – | –
CCN1C(=O)N(C)C(O)c2c1nc1ccccn1c2=O (stereo not drawn) | 33 µM (inactive) | – | 0.232 µM (active) | 32.1 µM (inactive) | 24.6 µM (inactive) | 20.3 µM (inactive) | 39.4 µM (inactive) | 60.7 µM (inactive) | 27.6 µM (inactive) | 23 µM (inactive) | 24.9 µM (inactive) | 29.1 µM (inactive) | 32.1 µM (inactive) | 22.2 µM (inactive) | 17.5 µM (inactive) | 34.2 µM (inactive) | 18.9 µM (inactive) | – | –
CCOC(=O)C1=C(C)N(NC(=O)Nc2ccccc2)C2(N)N(NC(=O)Nc3ccccc3)C(C)=C(C(=O)OCC)C12C(=O)OCC (stereo not drawn) | 29.5 µM (inactive) | > 100 µM (inactive) | 56.4 µM (inactive) | – | 22.1 µM (inactive) | 27.4 µM (inactive) | 38.9 µM (inactive) | – | 54.3 µM (inactive) | 3.09 µM (inactive) | 35.2 µM (inactive) | 34 µM (inactive) | 33.2 µM (inactive) | 52.7 µM (inactive) | 36.2 µM (inactive) | 38.3 µM (inactive) | 35.9 µM (inactive) | 35.1 µM (inactive) | –
O=C1c2c(c3c4ccccc4n4c3c3c2c2ccccc2n3C/C=C\C4)C(=O)N1Cc1ccccc1 | – | > 100 µM (inactive) | > 100 µM (inactive) | > 100 µM (inactive) | > 100 µM (inactive) | > 100 µM (inactive) | > 100 µM (inactive) | > 100 µM (inactive) | > 100 µM (inactive) | > 100 µM (inactive) | > 100 µM (inactive) | > 100 µM (inactive) | > 100 µM (inactive) | – | > 100 µM (inactive) | > 100 µM (inactive) | > 100 µM (inactive) | > 100 µM (inactive) | –
Cc1[nH]c2ccccc2c1C1Cc2ccccc2N1C(=O)/C=C\C(=O)O (stereo not drawn) | > 100 µM (inactive) | > 100 µM (inactive) | 96.4 µM (inactive) | 28.4 µM (inactive) | 28.4 µM (inactive) | 45.6 µM (inactive) | 23.3 µM (inactive) | 27.9 µM (inactive) | 66.1 µM (inactive) | 30.9 µM (inactive) | 26.4 µM (inactive) | 29.6 µM (inactive) | 57.7 µM (inactive) | 21.8 µM (inactive) | 18.6 µM (inactive) | > 100 µM (inactive) | – | 22.6 µM (inactive) | –
CN(C)CCC(=O)c1ccccc1 | 46.7 µM (inactive) | > 43.7 µM (inactive) | > 57.5 µM (inactive) | 21.5 µM (inactive) | > 58.1 µM (inactive) | > 58.1 µM (inactive) | > 100 µM (inactive) | > 58.7 µM (inactive) | > 47.8 µM (inactive) | 38.3 µM (inactive) | 11.3 µM (inactive) | 35.1 µM (inactive) | 32.4 µM (inactive) | > 62.8 µM (inactive) | 36.4 µM (inactive) | > 65.2 µM (inactive) | 36.6 µM (inactive) | > 43 µM (inactive) | –
Nc1nc(O)c2nc(N)n(Cc3ccccc3)c2n1 | > 100 µM (inactive) | > 100 µM (inactive) | > 100 µM (inactive) | > 100 µM (inactive) | – | > 100 µM (inactive) | > 100 µM (inactive) | – | > 100 µM (inactive) | > 100 µM (inactive) | > 100 µM (inactive) | > 100 µM (inactive) | > 100 µM (inactive) | > 100 µM (inactive) | > 100 µM (inactive) | > 100 µM (inactive) | > 100 µM (inactive) | > 100 µM (inactive) | –
CC(=O)OCC(=O)[C@@]12OC(C)(C)O[C@@H]1C[C@H]1[C@@H]3CC(C=O)=C4C=C(OCCCl)CC[C@]4(C)[C@@]3(F)[C@@H](O)C[C@@]12C [FORMOCORTAL] | 19.9 µM (inactive) | 14.3 µM (inactive) | > 100 µM (inactive) | 5.87 µM (inactive) | 17.6 µM (inactive) | 15.3 µM (inactive) | 30.2 µM (inactive) | 17.3 µM (inactive) | 12.5 µM (inactive) | 5.93 µM (inactive) | 15.9 µM (inactive) | 13 µM (inactive) | 20.6 µM (inactive) | 20.7 µM (inactive) | 25.8 µM (inactive) | 24.5 µM (inactive) | 12.9 µM (inactive) | – | –
